Assay results reported in the NIST ThermoML archive (doi:10.1016/j.tca.2012.07.004).

Experiment: xn = mol fraction of the nth substance listed
Conditions: 101 kPa, Liquid; for mass density: Vibrating tube method; for viscosity: Vibrating wire viscometry; for speed of sound: ultrasonic interferometer

C[NH+](C)C.O=S(=O)([O-])O [trimethylammonium hydrogen sulfate] + CN1CCCC1=O
Conditions	mass density [kg/m3]	speed of sound [m/s]	viscosity [mPa·s]
298.15 K, x1 = 0.0183	1041.67	1572	2.72
298.15 K, x1 = 0.0369	1053.11	1573	3.99
298.15 K, x1 = 0.0964	1086.47	1576	6.59
298.15 K, x1 = 0.138	1103.99	1578	8.37
298.15 K, x1 = 0.2014	1128.96	1580	10.5
298.15 K, x1 = 0.3115	1160.07	1584	12.1
298.15 K, x1 = 0.3587	1170.49	1586	12.2
298.15 K, x1 = 0.4311	1187.05	1588	11.9
298.15 K, x1 = 0.5579	1214.39	1590	10.3
298.15 K, x1 = 0.6955	1257.13	1591	8.34
298.15 K, x1 = 0.775	1295.34	1584	7.25
298.15 K, x1 = 0.843	1334.58	1581	6.05
298.15 K, x1 = 0.9375	1403.82	1573	5.39
298.15 K, x1 = 0.97	1439.41	1566	5.24
298.15 K, x1 = 1	1467.58	1564	5.1
303.15 K, x1 = 0.0183	1037.3	1552	2.02
303.15 K, x1 = 0.0369	1048.09	1553	2.9
303.15 K, x1 = 0.0964	1080.22	1556	5.22
303.15 K, x1 = 0.138	1098.35	1558	6.83
303.15 K, x1 = 0.2014	1122.72	1562	8.56
303.15 K, x1 = 0.3115	1154.59	1568	9.88
303.15 K, x1 = 0.3587	1161.24	1571	9.93
303.15 K, x1 = 0.4311	1177.45	1573	9.66
303.15 K, x1 = 0.5579	1204.95	1577	8.28
303.15 K, x1 = 0.6955	1247.15	1575	6.8
303.15 K, x1 = 0.775	1283.75	1572	6.01
303.15 K, x1 = 0.843	1321.99	1571	5.07
303.15 K, x1 = 0.9375	1389.78	1567	4.66
303.15 K, x1 = 0.97	1426.11	1563	4.59
303.15 K, x1 = 1	1463.56	1560	4.48
308.15 K, x1 = 0.0183	1029.88	1529	1.91
308.15 K, x1 = 0.0369	1041.19	1530	2.48
308.15 K, x1 = 0.0964	1073.31	1534	4.55
308.15 K, x1 = 0.138	1091.47	1536	5.68
308.15 K, x1 = 0.2014	1115.24	1539	7.18
308.15 K, x1 = 0.3115	1146.54	1545	8.38
308.15 K, x1 = 0.3587	1155.39	1549	8.48
308.15 K, x1 = 0.4311	1170.29	1553	8.26
308.15 K, x1 = 0.5579	1196.63	1560	7.19
308.15 K, x1 = 0.6955	1239.34	1561	5.89
308.15 K, x1 = 0.775	1273.99	1560	5.25
308.15 K, x1 = 0.843	1315.25	1559	4.4
308.15 K, x1 = 0.9375	1383.15	1558	4.28
308.15 K, x1 = 0.97	1417.02	1557	4.01
308.15 K, x1 = 1	1463.5	1556	3.94
313.15 K, x1 = 0.0183	1024.27	1521	1.45
313.15 K, x1 = 0.0369	1035.08	1523	1.76
313.15 K, x1 = 0.0964	1066.52	1526	3.52
313.15 K, x1 = 0.138	1083.97	1528	4.79
313.15 K, x1 = 0.2014	1107.81	1530	6.19
313.15 K, x1 = 0.3115	1135.87	1539	7.09
313.15 K, x1 = 0.3587	1145.43	1541	7.14
313.15 K, x1 = 0.4311	1157.43	1545	6.99
313.15 K, x1 = 0.5579	1185.37	1550	6.15
313.15 K, x1 = 0.6955	1225.55	1551	4.7
313.15 K, x1 = 0.775	1260.83	1550	3.99
313.15 K, x1 = 0.843	1295.67	1553	3.52
313.15 K, x1 = 0.9375	1369.46	1552	3.35
313.15 K, x1 = 0.97	1404.25	1552	3.23
313.15 K, x1 = 1	1455.63	1552	3.16
